Among the data in PubChem BioAssay (NCI) are TGI and GI50 values, retold here.

The structures appear in SMILES notation.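 Grown in 96-well plates, cells were treated for 48 hours with each compound at five concentrations. Insufficient inhibition: endpoint recorded as highest concentration tested. At the GI50, growth is halved. Definition used: TGI = concentration required for complete inhibition of growth.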

What all share (test): DTP human tumour cell line panel, 48 h
For assay [1], the system named is KM12 colon.
Assay [2] concerns RPMI-8226 leukemia.
The subject of assay [3] is MCF7 breast.
Assay [4] concerns UACC-62 melanoma.
Assay [5] relates to MOLT-4 leukemia.
The test system of assay [6] is SR leukemia.
For assay [7], the system named is OVCAR-8 ovarian.
In assay [8] the test system is SN12C renal.
In assay [9] the test system is BT-549 breast.
The subject of assay [10] is A549 NSCLC.

Broadly, the TGI is the concentration giving total growth inhibition. Read a low TGI as more potent growth arrest. In the case of `O=C(CNc1nccs1)Nn1cnc2ccc(S(=O)(=O)Nc3nccs3)cc2c1=O`, the TGI in assay [1], in assay [2], in assay [3], in assay [4], in [5] and in assay [6] was greater than 100 µM in each case. The TGI in assay [7], in [8], in assay [9] and in assay [10] was greater than 100 µM throughout.

On to `Cc1ccc(S(=O)(=O)/N=C2/N(C)CCCS2(=O)=O)cc1`, for which the total growth inhibition concentration (TGI) in [1], in assay [2], in assay [3], in assay [4], in [5] and in assay [6] was greater than 100 µM each time. Also, the TGI in [7], in assay [8], in assay [9] and in [10] was greater than 100 µM each time.

For the molecule `COc1ccc(N2CN(C)CSC2=S)cc1`, the TGI in assay [1], in assay [2], in assay [3], in [4], in assay [5] and in assay [7] was greater than 100 µM in each case. Further, the TGI in [8], in assay [9] and in assay [10] was greater than 100 µM throughout.

For `COCCOC(C)C(=O)C(O)S(=O)(=O)O` (configuration not stated), the TGI in assay [1], in assay [2], in assay [3], in [4], in assay [5] and in assay [6] was greater than 100 µM each time. The TGI in assay [7], in assay [8], in assay [9] and in [10] was greater than 100 µM each time.

Regarding `C/C(=N\NC(=O)CC#N)C(CN1CCCCC1)C(c1ccccc1)c1c(O)c2ccccc2oc1=O` (configuration not stated), the TGI was greater than 100 µM in assay [1]; greater than 100 µM in assay [2]; 40.6 µM in assay [3]; greater than 100 µM in [4]; 69.4 µM in assay [5]; greater than 100 µM in assay [7]. The TGI in [9] and in assay [10] was greater than 100 µM in each case.

The GI50 is the concentration at which growth is held to half of that of the control. Turning to `Fc1ccc2[nH]cc(-c3nc(-c4c[nH]c5ccncc45)cs3)c2c1`, the figures for the GI50 in assay [4], in assay [8] and in assay [9] were 1.72 µM, 1.52 µM and 1.65 µM, respectively. The TGI in assay [4] is 3.2 µM; in [8] it was 2.92 µM; in assay [9] it was 3.07 µM.

For the molecule `CNC(=O)c1cc2nc3ccccc3c(=O)n2c2ccccc12`, the TGI in assay [1], in assay [2], in [3], in [4], in [5] and in assay [6] was greater than 10 µM in each case. Further, the TGI in [7], in assay [8], in assay [9] and in assay [10] was greater than 10 µM in each case.

`COc1cc(S(=O)(=O)Nc2ccc(-c3csc(N4C(=O)C(Cl)C4c4cccc(Oc5ccccc5)c4)n3)cc2)ccc1Cl` (configuration not stated): the TGI is 73.9 µM in assay [1]; greater than 100 µM in assay [2]; greater than 100 µM in assay [3]; 53.4 µM in assay [4]; greater than 100 µM in assay [5]; greater than 100 µM in assay [6]. Besides, the TGI in assay [7] was greater than 100 µM; in assay [8], 30.2 µM; in assay [9] it was 81.5 µM; in assay [10], greater than 100 µM.

On to `Cn1c(=O)c2c(nc3n2CCC(=O)N3CCCCl)n(C)c1=O`, for which the TGI in assay [1], in assay [2], in assay [4], in assay [5], in [6] and in assay [7] was greater than 100 µM each time. Also, the TGI in assay [8], in [9] and in [10] was greater than 100 µM in each case.

`CCOC(=O)CCC(NC(=O)c1ccc(Nc2nc3cc(C(F)(F)F)ccc3nc2C(=O)OCC)cc1)C(=O)OCC` (configuration not stated): the TGI in assay [2] is greater than 100 µM; in assay [4], 41.7 µM; in [5], greater than 100 µM; in assay [6] it was greater than 100 µM; in assay [7], 24.6 µM; in assay [8] it was 24.3 µM. For the same molecule, the TGI was 29.8 µM in assay [9] and 27.4 µM in assay [10].

Consider `CSc1c2c(C)n[nH]c2nn1-c1ccccc1`, for which the TGI in assay [1], in assay [2], in assay [3], in [4], in [5] and in [6] was greater than 100 µM in each case. Besides, the TGI in assay [7], in [8], in assay [9] and in assay [10] was greater than 100 µM throughout.

In the case of `Cc1ccc(/C(O)=C/c2nc3cccnc3[nH]c2=O)cc1`, the TGI in assay [1], in [2], in [3], in [4], in assay [5] and in [6] was greater than 100 µM each time. For the same molecule, the TGI in [7], in [8], in assay [9] and in [10] was greater than 100 µM each time.

As to `COc1cc(NS(C)(=O)=O)ccc1NCc1cnc2ccc3[nH]cccc3c12`, the concentration for total growth inhibition (TGI) in [1] stood at 37.6 µM; in assay [2], 29.8 µM; in assay [3] it was 59 µM; in assay [4] it was 35.8 µM; in assay [5], 22.1 µM; in [6], 28 µM. Also, the TGI in assay [7] was 75.7 µM; in assay [8], 67.4 µM; in assay [9] it was 52.6 µM; in assay [10], greater than 96.3 µM.

`CC(=O)NNC(=S)/N=C\c1c(O)c2ccccc2oc1=O`: the TGI in assay [1], in assay [2], in assay [3], in assay [4], in [5] and in [6] was greater than 100 µM each time. The TGI in [7], in [8], in assay [9] and in assay [10] was greater than 100 µM throughout.

`C/C(=N/NC(=S)N(C)C)c1ccccc1O`: the TGI in [1] was greater than 100 µM; in [2] it was greater than 100 µM; in assay [3], greater than 40.4 µM; in assay [4] it was 27 µM; in [5], 97.7 µM; in [6], greater than 39.5 µM. For the same molecule, the TGI is greater than 74.4 µM in assay [7], greater than 100 µM in assay [8], greater than 100 µM in [9] and greater than 100 µM in assay [10].

For `Oc1cc(Cl)cc2cc(Cl)cnc12`, the TGI is greater than 100 µM in assay [1]; 12.2 µM in [2]; 54.6 µM in [3]; 7.81 µM in [4]; 11.5 µM in assay [5]; 13.6 µM in assay [6]. In addition, the TGI in assay [7], in assay [8], in assay [9] and in [10] was greater than 100 µM throughout.

As for `CC(=O)OC12CC(C(F)(F)F)(C(F)(F)F)OC1(OC(C)=O)CC(C(F)(F)F)(C(F)(F)F)O2` (configuration not stated), the TGI in assay [1] was 11.5 µM; in [2], 7.61 µM; in assay [3] it was 3.73 µM; in assay [4] it was greater than 100 µM; in assay [5], 67.6 µM; in [6], 82.1 µM. For the same molecule, the TGI was greater than 100 µM in [7], greater than 100 µM in assay [8], greater than 100 µM in assay [9] and 5.6 µM in assay [10].

For `N/C(=N\S(=O)(=O)c1ccc(-c2ccccn2)s1)Nc1ccc(Cl)cc1`, the TGI in assay [1] turned out to be 70.4 µM; in assay [2] it was 84.5 µM; in [3] it was 34.4 µM; in assay [4] it was 26.4 µM; in assay [5], 5.61 µM; in [6], 53.1 µM. Besides, the TGI in assay [7] came out at 37.6 µM; in [8], 30.3 µM; in [9], 32.6 µM; in [10] it was 47.2 µM.

As for `COC(=O)[C@H]1[C@@H](O)[C@@]2(O)c3c(OC)cc(OC)cc3O[C@@]2(c2ccc3c(c2)OCO3)[C@@H]1c1ccccc1`, the TGI in [1] was 0.113 µM; in assay [2], 0.0492 µM; in [3], 0.0618 µM; in assay [4], greater than 50 µM; in assay [5], 0.0482 µM; in [7], greater than 50 µM. Besides, the results for the TGI in assay [8], in assay [9] and in [10] were 1.46 µM, greater than 50 µM and 0.5 µM, respectively.

For `C=C1C(=O)[C@]23C[C@H]1C[C@@H](O)[C@H]2[C@]1(COC3=O)[C@@H](OC(C)=O)CC[C@@](C)(COC(C)=O)[C@H]1C=O`, the TGI in assay [1] is greater than 50 µM; in [3] it was greater than 50 µM; in [4] it was greater than 50 µM; in assay [5] it was 18.2 µM; in [6], greater than 50 µM; in assay [7] it was greater than 50 µM. The TGI in assay [8], in assay [9] and in assay [10] was greater than 50 µM in each case.

Regarding `Clc1ccc2nc3n[nH]c(Cl)c3nc2c1`, the TGI in [1], in [2], in assay [3], in assay [4], in assay [5] and in assay [7] was greater than 100 µM in each case. Also, the TGI in assay [8], in assay [9] and in assay [10] was greater than 100 µM each time.

Take `Cc1nc2ccccc2c(=O)n1NC(=O)c1ccccc1[N+](=O)[O-]`: the TGI in assay [1], in assay [2], in assay [3], in assay [4], in [5] and in assay [6] was greater than 100 µM in each case. In addition, the TGI in [8], in assay [9] and in assay [10] was greater than 100 µM throughout.

For the molecule `Cn1cc(-c2nc(-c3c[nH]c4ccncc34)cs2)c2ccccc21`, the GI50 in assay [1] is 1.11 µM; in assay [4], 1.69 µM; in assay [8], 1.76 µM; in assay [9], 9 µM; in assay [10], 1.83 µM. Further, the TGI in [1] was 2.35 µM; in assay [4], 3.11 µM; in assay [8], 3.27 µM; in assay [9], 35.5 µM; in [10], 3.46 µM.

Consider `CCCCOc1c(C(=O)O)cc(Br)cc1C(=O)O`, for which the TGI in [1], in [2], in [3], in assay [5], in assay [7] and in assay [8] was greater than 100 µM in each case. For the same molecule, the TGI in [9] and in [10] was greater than 100 µM throughout.

Turning to `O=C(OCC1CCCN2CCCCC12)c1cccnc1` (configuration not stated), the TGI in [1], in [2], in assay [3], in [4], in [5] and in assay [7] was greater than 100 µM each time. Also, the TGI in [8], in assay [9] and in assay [10] was greater than 100 µM in each case.

Turning to `COC(=O)c1ccccc1NC(=S)NN(C)C`, the TGI in assay [1], in assay [2], in assay [3], in assay [4], in assay [5] and in assay [6] was greater than 100 µM in each case. Moreover, the TGI in assay [7], in assay [9] and in assay [10] was greater than 100 µM each time.

Take `COc1cc(OCc2nc3cc(C(F)(F)F)ccc3nc2-c2ccccc2)cc(OC)c1OC`: the concentration for total growth inhibition (TGI) in assay [1], in assay [2], in [3], in [4], in assay [5] and in [6] was greater than 100 µM in each case. Also, the TGI in assay [7], in [9] and in assay [10] was greater than 100 µM in each case.

Regarding `CCCc1n[nH]c(=O)n1N1C(=O)C=CC1=O`, the TGI in assay [3], in assay [4], in [5], in [6], in assay [8] and in [9] was greater than 100 µM each time. In addition, the TGI in assay [10] was greater than 100 µM.

On to `Nc1nc2c(c(-c3ccccc3Cl)n1)COC/C2=C\c1ccccc1Cl`, for which the concentration for total growth inhibition (TGI) worked out at 41.8 µM in assay [1]; 35.2 µM in [2]; 27.7 µM in assay [3]; 30.6 µM in assay [4]; 34.6 µM in assay [5]; 22.9 µM in assay [6]. For the same molecule, the figures for the TGI in assay [7], in [8] and in assay [9] were 30.8 µM, 31.3 µM and 33.4 µM, respectively.
